Columns and labels:
[1] = test system: normal NK cells expanded with K562-aAPC; assay: percent inhibition of viability; higher = more inhibition; conditions: 72 h, IL-2 2.5 ng/mL
Procedure: (§1)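 Drug sensitivity and resistance testing on K562-aAPC-expanded normal NK cells: 5 concentrations (10-fold steps over a 10,000-fold range), 72 h at 37 °C, viability by CellTiter-Glo normalised to DMSO and benzethonium chloride controls; DSS from the fitted curve.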

[2] = test system: NK-92 (IL-2 2.5 ng/mL); assay: drug sensitivity score (DSS) (DSS units); higher = more sensitive; extreme values may be limits of the assay; conditions: 72 h
[3] = test system: KAI3 (IL-2 2.5 ng/mL); assay: as above; conditions: 72 h
[4] = test system: normal primary NK cells, pool 1 (3 donors), resting (IL-2 0 ng/mL); assay: as above; conditions: 72 h
[5] = test system: SNK-6 (IL-2 2.5 ng/mL); assay: as above; conditions: 72 h
[6] = test system: NKL (IL-2 2.5 ng/mL); assay: as above; conditions: 72 h
[7] = test system: YT (IL-2 2.5 ng/mL); assay: as above; conditions: 72 h
[8] = test system: DERL-7 (IL-2 2.5 ng/mL); assay: as above; conditions: 72 h
[9] = test system: KHYG-1 (IL-2 2.5 ng/mL); assay: as above; conditions: 72 h
[10] = test system: normal primary NK cells, pool 3 (3 donors) (IL-2 2.5 ng/mL); assay: as above; conditions: 72 h
[11] = test system: IMC-1 (IL-2 20 ng/mL); assay: as above; conditions: 72 h
[12] = test system: normal primary NK cells, pool 1 (3 donors) (IL-2 2.5 ng/mL); assay: as above; conditions: 72 h
[13] = test system: NK-YS (IL-2 2.5 ng/mL); assay: as above; conditions: 72 h
[14] = test system: normal primary NK cells, pool 2 (3 donors) (IL-2 2.5 ng/mL); assay: as above; conditions: 72 h
[15] = test system: normal NK cells expanded with K562-aAPC; assay: as above; conditions: 72 h; IL-2 2.5 ng/mL
Procedure: as §1

[16] = test system: NK-92 (IL-2 2.5 ng/mL); assay: percent inhibition of viability; higher = more inhibition; conditions: 72 h
[17] = test system: KAI3 (IL-2 2.5 ng/mL); assay: as above; conditions: 72 h
[18] = test system: normal primary NK cells, pool 1 (3 donors), resting (IL-2 0 ng/mL); assay: as above; conditions: 72 h
[19] = test system: SNK-6 (IL-2 2.5 ng/mL); assay: as above; conditions: 72 h
[20] = test system: NKL (IL-2 2.5 ng/mL); assay: as above; conditions: 72 h
[21] = test system: YT (IL-2 2.5 ng/mL); assay: as above; conditions: 72 h
[22] = test system: DERL-7 (IL-2 2.5 ng/mL); assay: as above; conditions: 72 h
[23] = test system: KHYG-1 (IL-2 2.5 ng/mL); assay: as above; conditions: 72 h
[24] = test system: normal primary NK cells, pool 3 (3 donors) (IL-2 2.5 ng/mL); assay: as above; conditions: 72 h
[25] = test system: IMC-1 (IL-2 20 ng/mL); assay: as above; conditions: 72 h
[26] = test system: normal primary NK cells, pool 1 (3 donors) (IL-2 2.5 ng/mL); assay: as above; conditions: 72 h
[27] = test system: NK-YS (IL-2 2.5 ng/mL); assay: as above; conditions: 72 h
[28] = test system: normal primary NK cells, pool 2 (3 donors) (IL-2 2.5 ng/mL); assay: as above; conditions: 72 h

CC(C)Cn1cnc2c(N)nc3ccccc3c21 [Imiquimod] (max concentration tested 2500 nM)
percent inhibition of viability ([1]; 0.25 nM): -2.97% | percent inhibition of viability ([1]; 2.5 nM): -4.12% | percent inhibition of viability ([1]; 25 nM): -1.05% | percent inhibition of viability ([1]; 250 nM): 14.8% | percent inhibition of viability ([1]; 2500 nM): 11.3% | drug sensitivity score [2]: 0.3 | drug sensitivity score [3]: 0.57 | drug sensitivity score [4]: 0 | drug sensitivity score [5]: 9.47 | drug sensitivity score [6]: 0 | drug sensitivity score [7]: 0 | drug sensitivity score [8]: 0 | drug sensitivity score [9]: 0.26 | drug sensitivity score [10]: 0 | drug sensitivity score [11]: 1.48 | drug sensitivity score [12]: 0 | drug sensitivity score [13]: 0.38 | drug sensitivity score [14]: 0.45 | drug sensitivity score [15]: 1.27 | percent inhibition of viability ([16]; 0.25 nM): -7.9% | percent inhibition of viability ([16]; 2.5 nM): -11.3% | percent inhibition of viability ([16]; 25 nM): -5.41% | percent inhibition of viability ([16]; 250 nM): 5.55% | percent inhibition of viability ([16]; 2500 nM): 12.3% | percent inhibition of viability ([17]; 0.25 nM): -2.07% | percent inhibition of viability ([17]; 2.5 nM): -8.41% | percent inhibition of viability ([17]; 25 nM): 6.25% | percent inhibition of viability ([17]; 250 nM): 5.37% | percent inhibition of viability ([17]; 2500 nM): 17.9% | percent inhibition of viability ([18]; 0.25 nM): -4.66% | percent inhibition of viability ([18]; 2.5 nM): 7.46% | percent inhibition of viability ([18]; 25 nM): -14.7% | percent inhibition of viability ([18]; 250 nM): -14.5% | percent inhibition of viability ([18]; 2500 nM): -19.1% | percent inhibition of viability ([19]; 0.25 nM): 10.3% | percent inhibition of viability ([19]; 2.5 nM): -13.6% | percent inhibition of viability ([19]; 25 nM): 12.2% | percent inhibition of viability ([19]; 250 nM): 44% | percent inhibition of viability ([19]; 2500 nM): 57.8% | percent inhibition of viability ([20]; 0.25 nM): -2.54% | percent inhibition of viability ([20]; 2.5 nM): -14.7% | percent inhibition of viability ([20]; 25 nM): -1.93% | percent inhibition of viability ([20]; 250 nM): 3.67% | percent inhibition of viability ([20]; 2500 nM): 1.08% | percent inhibition of viability ([21]; 0.25 nM): -4.4% | percent inhibition of viability ([21]; 2.5 nM): -3% | percent inhibition of viability ([21]; 25 nM): 5.75% | percent inhibition of viability ([21]; 250 nM): 3.31% | percent inhibition of viability ([21]; 2500 nM): 4.52% | percent inhibition of viability ([22]; 0.25 nM): -5% | percent inhibition of viability ([22]; 2.5 nM): 4.44% | percent inhibition of viability ([22]; 25 nM): -3.41% | percent inhibition of viability ([22]; 250 nM): 4.83% | percent inhibition of viability ([22]; 2500 nM): -1.82% | percent inhibition of viability ([23]; 0.25 nM): -3% | percent inhibition of viability ([23]; 2.5 nM): -3.08% | percent inhibition of viability ([23]; 25 nM): 2.45% | percent inhibition of viability ([23]; 250 nM): 6.32% | percent inhibition of viability ([23]; 2500 nM): 13.8% | percent inhibition of viability ([24]; 0.25 nM): -14.7% | percent inhibition of viability ([24]; 2.5 nM): -9.92% | percent inhibition of viability ([24]; 25 nM): -6.17% | percent inhibition of viability ([24]; 250 nM): -5.82% | percent inhibition of viability ([24]; 2500 nM): 6.93% | percent inhibition of viability ([25]; 0.25 nM): 2.11% | percent inhibition of viability ([25]; 2.5 nM): -3.32% | percent inhibition of viability ([25]; 25 nM): 4.26% | percent inhibition of viability ([25]; 250 nM): 10.8% | percent inhibition of viability ([25]; 2500 nM): 22.2% | percent inhibition of viability ([26]; 0.25 nM): -14.4% | percent inhibition of viability ([26]; 2.5 nM): 5.91% | percent inhibition of viability ([26]; 25 nM): -7.15% | percent inhibition of viability ([26]; 250 nM): -9.14% | percent inhibition of viability ([26]; 2500 nM): 5.82% | percent inhibition of viability ([27]; 0.25 nM): -0.76% | percent inhibition of viability ([27]; 2.5 nM): -2.23% | percent inhibition of viability ([27]; 25 nM): 5.71% | percent inhibition of viability ([27]; 250 nM): 6% | percent inhibition of viability ([27]; 2500 nM): 16.1% | percent inhibition of viability ([28]; 0.25 nM): -8% | percent inhibition of viability ([28]; 2.5 nM): -6.73% | percent inhibition of viability ([28]; 25 nM): -8.32% | percent inhibition of viability ([28]; 250 nM): -4.68% | percent inhibition of viability ([28]; 2500 nM): 20.8%

Nc1nc(OCc2cc(Br)cs2)c2[nH]cnc2n1 [Lomeguatrib] (max concentration tested 10000 nM)
percent inhibition of viability ([1]; 1 nM): -6.1% | percent inhibition of viability ([1]; 10 nM): -4.35% | percent inhibition of viability ([1]; 100 nM): -4.12% | percent inhibition of viability ([1]; 1000 nM): -3.84% | percent inhibition of viability ([1]; 10000 nM): 21% | drug sensitivity score [2]: 0 | drug sensitivity score [3]: 0.96 | drug sensitivity score [4]: 0 | drug sensitivity score [5]: 0 | drug sensitivity score [6]: 4.14 | drug sensitivity score [7]: 0.19 | drug sensitivity score [8]: 1.33 | drug sensitivity score [9]: 0 | drug sensitivity score [10]: 0 | drug sensitivity score [11]: 0 | drug sensitivity score [12]: 2.96 | drug sensitivity score [13]: 0.03 | drug sensitivity score [14]: 0.34 | drug sensitivity score [15]: 0.49 | percent inhibition of viability ([16]; 1 nM): -11.6% | percent inhibition of viability ([16]; 10 nM): -17.5% | percent inhibition of viability ([16]; 100 nM): -5.85% | percent inhibition of viability ([16]; 1000 nM): -7.63% | percent inhibition of viability ([16]; 10000 nM): 3.77% | percent inhibition of viability ([17]; 1 nM): 3.07% | percent inhibition of viability ([17]; 10 nM): -2.1% | percent inhibition of viability ([17]; 100 nM): -3% | percent inhibition of viability ([17]; 1000 nM): 0.64% | percent inhibition of viability ([17]; 10000 nM): 24.2% | percent inhibition of viability ([18]; 1 nM): 12.8% | percent inhibition of viability ([18]; 10 nM): 8.93% | percent inhibition of viability ([18]; 100 nM): 18.4% | percent inhibition of viability ([18]; 1000 nM): 19.5% | percent inhibition of viability ([18]; 10000 nM): 20.8% | percent inhibition of viability ([19]; 1 nM): -7.32% | percent inhibition of viability ([19]; 10 nM): 6.29% | percent inhibition of viability ([19]; 100 nM): -7.89% | percent inhibition of viability ([19]; 1000 nM): 4% | percent inhibition of viability ([19]; 10000 nM): 9.3% | percent inhibition of viability ([20]; 1 nM): -4.89% | percent inhibition of viability ([20]; 10 nM): -6.45% | percent inhibition of viability ([20]; 100 nM): -9.35% | percent inhibition of viability ([20]; 1000 nM): 8.52% | percent inhibition of viability ([20]; 10000 nM): 51.3% | percent inhibition of viability ([21]; 1 nM): -3.67% | percent inhibition of viability ([21]; 10 nM): -6.22% | percent inhibition of viability ([21]; 100 nM): -3.85% | percent inhibition of viability ([21]; 1000 nM): 0.11% | percent inhibition of viability ([21]; 10000 nM): 14.3% | percent inhibition of viability ([22]; 1 nM): 4.42% | percent inhibition of viability ([22]; 10 nM): 1.17% | percent inhibition of viability ([22]; 100 nM): 2.11% | percent inhibition of viability ([22]; 1000 nM): 0.21% | percent inhibition of viability ([22]; 10000 nM): 29.9% | percent inhibition of viability ([23]; 1 nM): 1.34% | percent inhibition of viability ([23]; 10 nM): -3.62% | percent inhibition of viability ([23]; 100 nM): -7.2% | percent inhibition of viability ([23]; 1000 nM): -3.96% | percent inhibition of viability ([23]; 10000 nM): 7.46% | percent inhibition of viability ([24]; 1 nM): 0.89% | percent inhibition of viability ([24]; 10 nM): -1.05% | percent inhibition of viability ([24]; 100 nM): 7.15% | percent inhibition of viability ([24]; 1000 nM): 4.29% | percent inhibition of viability ([24]; 10000 nM): 9.2% | percent inhibition of viability ([25]; 1 nM): -11.5% | percent inhibition of viability ([25]; 10 nM): -6.71% | percent inhibition of viability ([25]; 100 nM): -6.4% | percent inhibition of viability ([25]; 1000 nM): -6.2% | percent inhibition of viability ([25]; 10000 nM): 8.26% | percent inhibition of viability ([26]; 1 nM): -4.41% | percent inhibition of viability ([26]; 10 nM): 4.97% | percent inhibition of viability ([26]; 100 nM): 9.83% | percent inhibition of viability ([26]; 1000 nM): 16% | percent inhibition of viability ([26]; 10000 nM): 26.1% | percent inhibition of viability ([27]; 1 nM): 1.57% | percent inhibition of viability ([27]; 10 nM): -2.53% | percent inhibition of viability ([27]; 100 nM): -4.74% | percent inhibition of viability ([27]; 1000 nM): -3.26% | percent inhibition of viability ([27]; 10000 nM): 12.7% | percent inhibition of viability ([28]; 1 nM): -5.64% | percent inhibition of viability ([28]; 10 nM): -7.78% | percent inhibition of viability ([28]; 100 nM): 3.47% | percent inhibition of viability ([28]; 1000 nM): 3.5% | percent inhibition of viability ([28]; 10000 nM): 14.1%

— the supplement of paper PMC5908809
